Source: publication PMC6934184, “Selective DNA-PKcs inhibition extends the therapeutic index of localized radiotherapy and chemotherapy” (The Journal of Clinical Investigation, 2019)

Molecular target: T1, BMPR1B (ALK6) (Homo sapiens, UniProt O00238)
T1 construct: purchased Thermo Fisher Scientific (Life Technologies) SelectScreen
Assay: SelectScreen LanthaScreen
Format: binding
Conditions: read-out: % displacement
In short: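 Percent values come from Thermo SelectScreen profiling of NU5455, combining activity and binding assays. CSF1R was run in Z'LYTE format at Km app ATP, and CAMK1 in Adapta format with ATP listed at 10.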

T1 sequence (O00238 14-502): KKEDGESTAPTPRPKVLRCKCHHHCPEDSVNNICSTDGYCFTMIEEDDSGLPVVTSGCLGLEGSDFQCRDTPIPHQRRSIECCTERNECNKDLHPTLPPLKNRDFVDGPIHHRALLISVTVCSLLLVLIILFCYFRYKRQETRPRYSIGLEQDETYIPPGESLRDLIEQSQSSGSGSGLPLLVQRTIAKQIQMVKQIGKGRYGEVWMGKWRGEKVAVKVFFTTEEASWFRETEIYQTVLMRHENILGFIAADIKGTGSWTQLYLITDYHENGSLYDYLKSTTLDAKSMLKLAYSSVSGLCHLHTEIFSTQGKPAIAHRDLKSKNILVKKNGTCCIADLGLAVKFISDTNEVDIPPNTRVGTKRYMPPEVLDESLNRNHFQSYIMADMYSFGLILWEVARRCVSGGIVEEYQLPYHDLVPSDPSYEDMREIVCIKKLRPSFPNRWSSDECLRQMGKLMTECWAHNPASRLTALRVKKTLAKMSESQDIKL

SMILES: CN(C(=O)CN1CCOCC1)c1ccc2sc3c(-c4cccc5c(=O)cc(N6CC7CCC(C6)O7)oc45)cccc3c2c1 [NU5455]
- inhibition at 1 µM: 14.5%
